The record followed here is ChEMBL document CHEMBL1201862, “PubChem BioAssay data set” (2004).

Calls of active or inactive are those of the source. Where only a bound is given, the exact number is not on record here.

Assay [1] is described as follows: inhibitors of TRPM1-promoter reporter in SK-MEL-5 – cell-based, luciferase, dry powder, set 9, MITF inhibitor project, dose response (AID 651588). It counts as functional.
Assay [2] is described as follows: MITF Orthogonal Assay: MALME3 CTG Assay Measured in Cell-Based System Using Plate Reader - 2084-04_Inhibitor_Dose_DryPowder_Activity_Set6. The format is functional. The following applies: MALME-3.
Assay [3] in a line: growth inhibition of SK-MEL-5 melanoma cells – cell-based, CellTiter-Glo luminescence, dry powder, set 8, orthogonal assay for MITF inhibitor project, dose response (AID 651586). It counts as functional. (Cellular ATP, detected with luciferase, serves as a proxy for viable cell number.)
Assay [4] in a line: growth inhibition of MALME3 cells – cell-based, CellTiter-Glo luminescence, dry powder, set 5, orthogonal assay for MITF inhibitor project, dose response (AID 651584). The following applies: MALME-3. It counts as functional.
The nature of assay [5]: MITF Orthogonal Assay: SK-MEL-5 CTG Assay Measured in Cell-Based System Using Plate Reader - 2084-02_Inhibitor_Dose_DryPowder_Activity_Set7. It counts as functional.
Assay [6] can be described thus: MITF: Counter assay: A375 proliferation Measured in Cell-Based System Using Plate Reader - 2084-03_Inhibitor_Dose_DryPowder_Activity_Set8. As to conditions: A-375. It counts as functional.
A short description of assay [7]: cytotoxicity in MITF-independent A375 cells – cell-based, CellTiter-Glo luminescence, dry powder, set 9, counter-screen for MITF modulator project, dose response (AID 651591). The format is functional. The following applies: A-375.
A short description of assay [8]: inhibitors of TRPM1-promoter reporter in SK-MEL-5 – cell-based, luciferase, dry powder, set 8, MITF inhibitor project, dose response (AID 624430). The format is functional.
Assay [9] is described as follows: melanocyte viability loss, MITF-dependent cells, cell-based, plate reader, dry powder, cytotoxicity control, dose response (AID 651920). It counts as functional.
Assay [10] can be described thus: viability loss in HepG2 hepatoma cells – cell-based, cherry-picks, set 5, cytotoxicity control, dose response (AID 1053118). The format is functional.
The nature of assay [11]: viability loss in HEK293 kidney cells – cell-based, cherry-picks, set 5, cytotoxicity control, dose response (AID 1053117). It counts as functional.
Assay [12] is described as follows: viability loss in A549 lung cancer cells – cell-based, cherry-picks, […], cytotoxicity control, dose response (AID 1053119). The format is functional.
For another assay, the target named is T1, Caspase-3 (Homo sapiens, UniProt P42574).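 Further: Dose-response selectivity test against caspase-3 for candidate inhibitors of sentrin-specific proteases (SENPs).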
T1 sequence (P42574 whole entry): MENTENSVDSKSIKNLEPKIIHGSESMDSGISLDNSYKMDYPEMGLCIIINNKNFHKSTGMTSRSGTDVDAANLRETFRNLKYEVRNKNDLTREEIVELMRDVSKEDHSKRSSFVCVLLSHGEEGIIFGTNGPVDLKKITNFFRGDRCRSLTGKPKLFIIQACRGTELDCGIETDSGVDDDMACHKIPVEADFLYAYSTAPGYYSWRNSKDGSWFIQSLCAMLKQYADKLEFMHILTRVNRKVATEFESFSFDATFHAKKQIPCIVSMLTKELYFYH
It counts as functional.

The target of assay [13] is T2, Sentrin-specific protease 7 (Homo sapiens, UniProt Q9BQF6).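 Further: Luminescence-based dose-response confirmation of ultra-high-throughput screening hits, measuring inhibition of SENP7.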
T2 sequence (Q9BQF6 whole entry): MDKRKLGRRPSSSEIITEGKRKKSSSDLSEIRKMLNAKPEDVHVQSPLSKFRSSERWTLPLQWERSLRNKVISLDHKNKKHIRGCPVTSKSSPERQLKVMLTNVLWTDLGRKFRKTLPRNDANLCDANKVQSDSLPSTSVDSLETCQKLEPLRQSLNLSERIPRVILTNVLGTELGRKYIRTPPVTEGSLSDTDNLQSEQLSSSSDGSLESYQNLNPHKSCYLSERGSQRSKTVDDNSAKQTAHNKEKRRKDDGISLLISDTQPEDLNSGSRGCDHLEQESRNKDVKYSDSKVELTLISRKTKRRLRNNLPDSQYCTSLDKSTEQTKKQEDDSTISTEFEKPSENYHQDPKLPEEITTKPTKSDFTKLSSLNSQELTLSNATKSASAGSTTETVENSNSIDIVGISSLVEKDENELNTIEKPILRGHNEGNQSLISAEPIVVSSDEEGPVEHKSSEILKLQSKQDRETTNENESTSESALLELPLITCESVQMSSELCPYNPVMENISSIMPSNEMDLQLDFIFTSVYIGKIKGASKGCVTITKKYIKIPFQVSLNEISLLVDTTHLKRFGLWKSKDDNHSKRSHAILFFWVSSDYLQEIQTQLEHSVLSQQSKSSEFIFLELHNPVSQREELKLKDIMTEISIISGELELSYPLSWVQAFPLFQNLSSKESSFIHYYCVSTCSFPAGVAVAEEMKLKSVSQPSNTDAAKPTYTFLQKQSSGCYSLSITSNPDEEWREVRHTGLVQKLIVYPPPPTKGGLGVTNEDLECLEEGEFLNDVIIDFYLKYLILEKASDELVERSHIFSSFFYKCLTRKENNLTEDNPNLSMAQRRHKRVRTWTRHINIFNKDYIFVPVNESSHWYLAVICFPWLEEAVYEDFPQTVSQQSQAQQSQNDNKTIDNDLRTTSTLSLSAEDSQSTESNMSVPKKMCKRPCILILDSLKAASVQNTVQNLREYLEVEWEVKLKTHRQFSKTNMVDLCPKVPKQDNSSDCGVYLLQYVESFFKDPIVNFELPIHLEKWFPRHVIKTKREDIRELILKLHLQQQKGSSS
The format is functional.

Assay [14] has as its target T3, Sentrin-specific protease 6 (Homo sapiens, UniProt Q9GZR1).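 Further: Luminescence-based dose-response confirmatory assay of SENP6 inhibition, following up an ultra-high-throughput screen.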
T3 sequence (Q9GZR1 whole entry): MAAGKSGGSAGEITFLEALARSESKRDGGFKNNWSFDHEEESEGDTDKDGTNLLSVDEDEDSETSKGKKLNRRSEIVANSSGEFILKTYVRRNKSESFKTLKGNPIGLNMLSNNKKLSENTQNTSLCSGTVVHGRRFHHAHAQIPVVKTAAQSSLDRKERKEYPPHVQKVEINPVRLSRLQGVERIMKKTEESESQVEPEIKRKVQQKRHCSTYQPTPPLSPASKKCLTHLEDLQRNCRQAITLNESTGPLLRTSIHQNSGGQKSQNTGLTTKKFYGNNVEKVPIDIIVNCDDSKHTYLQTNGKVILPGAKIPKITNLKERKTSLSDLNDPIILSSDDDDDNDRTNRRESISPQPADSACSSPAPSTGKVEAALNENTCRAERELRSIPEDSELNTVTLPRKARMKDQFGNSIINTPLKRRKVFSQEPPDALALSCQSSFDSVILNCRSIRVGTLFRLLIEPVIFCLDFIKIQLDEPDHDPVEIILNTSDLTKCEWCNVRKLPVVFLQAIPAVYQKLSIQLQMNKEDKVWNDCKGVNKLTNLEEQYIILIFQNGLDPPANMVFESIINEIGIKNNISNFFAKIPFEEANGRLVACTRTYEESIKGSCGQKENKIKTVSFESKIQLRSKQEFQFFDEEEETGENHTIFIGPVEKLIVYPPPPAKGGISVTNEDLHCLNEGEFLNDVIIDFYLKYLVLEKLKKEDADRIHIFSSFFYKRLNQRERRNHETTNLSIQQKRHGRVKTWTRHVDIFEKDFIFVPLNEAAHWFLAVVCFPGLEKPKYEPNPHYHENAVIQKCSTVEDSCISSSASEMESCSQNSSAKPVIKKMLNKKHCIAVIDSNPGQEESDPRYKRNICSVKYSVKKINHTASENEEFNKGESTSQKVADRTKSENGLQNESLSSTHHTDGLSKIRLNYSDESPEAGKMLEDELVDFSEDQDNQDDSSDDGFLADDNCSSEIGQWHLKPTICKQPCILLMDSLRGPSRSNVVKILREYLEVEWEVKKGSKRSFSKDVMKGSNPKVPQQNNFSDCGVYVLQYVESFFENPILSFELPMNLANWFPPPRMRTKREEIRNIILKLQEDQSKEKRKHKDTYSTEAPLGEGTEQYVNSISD
It counts as functional.

Assay [15] concerns the target T4, Sentrin-specific protease 8 (Homo sapiens, UniProt Q96LD8).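 Further: luminescence read-out of SENP8 inhibition, dose-response confirmation following an ultra-high-throughput screen.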
T4 sequence (Q96LD8 whole entry): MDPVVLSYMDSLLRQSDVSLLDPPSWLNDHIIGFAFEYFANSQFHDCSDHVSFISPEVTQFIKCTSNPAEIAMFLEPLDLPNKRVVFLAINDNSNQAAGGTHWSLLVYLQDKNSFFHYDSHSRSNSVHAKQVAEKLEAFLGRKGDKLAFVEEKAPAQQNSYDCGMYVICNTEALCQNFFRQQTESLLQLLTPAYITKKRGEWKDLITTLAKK
It counts as functional.

Assay [16] in a line: Luminescence-based cell-based high throughput dose response assay to identify activators of the DAF-12 from the parasite S. stercoralis (ssDAF-12). It counts as functional.
The target in assay [17] is T5, Oxysterols receptor LXR-beta (Homo sapiens, UniProt P55055).
T5 sequence (P55055 whole entry): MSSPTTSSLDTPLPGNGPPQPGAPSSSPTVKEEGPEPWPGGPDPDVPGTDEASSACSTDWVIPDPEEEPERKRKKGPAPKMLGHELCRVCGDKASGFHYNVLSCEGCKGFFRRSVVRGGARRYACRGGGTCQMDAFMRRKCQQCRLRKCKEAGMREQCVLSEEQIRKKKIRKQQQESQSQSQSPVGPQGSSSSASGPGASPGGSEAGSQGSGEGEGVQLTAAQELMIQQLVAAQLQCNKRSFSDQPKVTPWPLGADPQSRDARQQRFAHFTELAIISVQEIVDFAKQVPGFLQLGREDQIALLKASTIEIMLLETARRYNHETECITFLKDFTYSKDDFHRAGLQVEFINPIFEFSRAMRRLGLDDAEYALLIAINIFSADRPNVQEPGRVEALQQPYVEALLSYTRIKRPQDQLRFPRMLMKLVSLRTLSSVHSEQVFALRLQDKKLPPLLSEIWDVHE
In words: LXR agonists, Gal4 luciferase reporter, dose response, counter-screen for ssDAF-12 agonist project, cell-based, luminescence, HEK293, S. stercoralis campaign (AID 720737). The format is functional. The following applies: read-out: IC50 (the source's name). Background: In a reporter assay the amount or activity of a reporter protein is the signal.

Assay [18] has as its target T5, Oxysterols receptor LXR-beta. It counts as functional, cell-based.
Assay [19] deals with Disintegrin and metalloproteinase domain-containing protein 17 (Homo sapiens, UniProt P78536). Nature of the assay: exosite inhibitors of ADAM17, dose response, biochemical (AID 743260).
Chain of Disintegrin and metalloproteinase domain-containing protein 17 (P78536 whole entry, the tested form may be a part): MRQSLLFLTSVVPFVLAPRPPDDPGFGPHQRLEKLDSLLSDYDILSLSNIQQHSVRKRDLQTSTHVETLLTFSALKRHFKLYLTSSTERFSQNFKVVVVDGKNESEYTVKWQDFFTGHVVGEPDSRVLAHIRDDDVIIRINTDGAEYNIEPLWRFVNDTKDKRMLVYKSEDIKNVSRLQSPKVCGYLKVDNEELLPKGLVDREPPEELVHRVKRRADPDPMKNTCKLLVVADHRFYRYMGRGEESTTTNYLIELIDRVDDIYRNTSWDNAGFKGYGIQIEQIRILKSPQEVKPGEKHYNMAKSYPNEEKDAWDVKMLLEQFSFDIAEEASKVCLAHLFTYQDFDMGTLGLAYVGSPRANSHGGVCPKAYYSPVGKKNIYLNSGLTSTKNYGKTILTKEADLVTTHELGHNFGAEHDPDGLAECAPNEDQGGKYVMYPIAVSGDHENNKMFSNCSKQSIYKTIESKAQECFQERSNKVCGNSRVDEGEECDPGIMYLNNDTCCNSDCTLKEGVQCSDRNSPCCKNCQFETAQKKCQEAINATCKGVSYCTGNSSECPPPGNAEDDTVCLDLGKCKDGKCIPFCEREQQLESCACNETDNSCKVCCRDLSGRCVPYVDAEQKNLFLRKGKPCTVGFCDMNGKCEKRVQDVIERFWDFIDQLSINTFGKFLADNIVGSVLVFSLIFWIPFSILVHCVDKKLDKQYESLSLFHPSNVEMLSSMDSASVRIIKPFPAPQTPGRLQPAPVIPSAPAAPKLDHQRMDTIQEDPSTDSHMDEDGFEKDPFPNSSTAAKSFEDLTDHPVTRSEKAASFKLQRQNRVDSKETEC
The nature of assay [20]: cytotoxicity in MITF-independent A375 cells – cell-based, CellTiter-Glo luminescence, dry powder, set 4, counter-screen for MITF inhibitor project, dose response (AID 624364).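 Further: A375 melanoma cells are MITF independent so this is a counter screen.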 The format is functional. As to conditions: A-375.
Assay [21] in a line: viability loss in MITF-independent A375 cells – cell-based, CellTiter-Glo luminescence, dry powder, set 7, counter-screen for MITF inhibitor project, dose response (AID 624490). It counts as functional. The following applies: A-375.
A short description of assay [22]: cytotoxicity in melanoma parental cells – cell-based, CellTiter-Glo, dry powder, set 6, MITF inhibitor project, dose response (AID 624429). It counts as functional. As to conditions: SK-MEL-5.
Assay [23] is described as follows: MITF Orthogonal Assay: SK-MEL-5 CTG Assay Measured in Cell-Based System Using Plate Reader - 2084-02_Inhibitor_Dose_DryPowder_Activity_Set5. It counts as functional.
Assay [24] can be described thus: viability loss in MITF-independent A375 cells – cell-based, CellTiter-Glo luminescence, dry powder, set 6, counter-screen for MITF inhibitor project, dose response (AID 624488). The format is functional. As to conditions: A-375.
A short description of assay [25]: MITF Measured in Cell-Based System Using Plate Reader - 2084-01_Inhibitor_Dose_DryPowder_Activity_Set6. It counts as functional.
Assay [26] is described as follows: viability loss in MITF-independent A375 cells – cell-based, CellTiter-Glo luminescence, dry powder, set 2, counter-screen for MITF inhibitor project, dose response (AID 624489).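 Further: actives are compounds lowering A375 viability meaning general cytotoxicity.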 The following applies: A-375. The format is functional.
A short description of assay [27]: MITF Measured in Cell-Based System Using Plate Reader - 2084-01_Inhibitor_Dose_DryPowder_Activity_Set7. The format is functional.

In the case of `O=C1C=C(Nc2ccc([N+](=O)[O-])c(C(F)(F)F)c2)C(=O)c2ccccc21`, the concentration at half-maximal activity (AC50) was 15.3 µM (active) in assay [1]; 27.7 µM (active) in assay [2]; 36.1 µM (active) in assay [3]; 27.7 µM (active) in assay [4]; 1.06 µM (active) in [5]; > 70 µM (inactive) in assay [6]. For the same compound, the AC50 is > 70 µM (inactive) in [7], 5.19 µM (active) in [8] and 8.56 µM (active) in assay [9].

Regarding `CO[C@@H]1CN(C)C(=O)c2ccc(NC(=O)c3ccc(-c4ccccc4)cc3)cc2OC[C@H](C)NC[C@H]1C`, the AC50 is 11.3 µM (active) in assay [10], 14 µM (active) in assay [11] and 13.6 µM (active) in assay [12].

`Cc1csc(NC(=O)c2ccc3ccccc3n2)n1`: the IC50 is 6.96 µM (active) at Caspase-3; 5.25 µM (active) in [13]; 11 µM (active) in assay [14]; 16.2 µM (active) in assay [15]; > 67.6 µM (inactive) in assay [16]. In addition, the EC50 in assay [17] and in assay [18] was > 67.6 µM (inactive) in each case.

With `CCOc1ccc(NC(=O)CC2SC(=O)N(c3ccccc3)C2=O)cc1` (stereo not drawn), in [19], the IC50 is 5.73 µM (active).

Take `O=C(NC1=C(Cl)C(=O)c2ccccc2C1=O)c1ccccc1`: the AC50 in assay [1] was 1.95 µM (active); in [20], 45.9 µM (active); in assay [21], 23.1 µM (active); in assay [2] it was 7.33 µM (active); in assay [3], 3.94 µM (active); in assay [4], 7.33 µM (active). In addition, the AC50 is 9.85 µM (active) in [22]; 13.5 µM (active) in assay [23]; 16.5 µM (active) in [24]; 28.7 µM (active) in [7]; 0.459 µM (active) in assay [25]; 22.8 µM (active) in assay [26]. Also, the AC50 in assay [27] is 0.913 µM (active).

As a reminder, the AC50 is the concentration giving half of the maximal activity seen. As usually defined, the IC50 is the concentration that gives 50% inhibition.
